Measurements as given in patent US7699995B2, “Water treatment method” (priority 2006, dated 2010).
Converted amounts (≈) assume the structure as drawn. Where two headings read alike, the source gives them in different places.

Experiments:
bacteria and fungi = experiment: MIC pH 9.0 versus pH 7.1, all nine organisms; type: cell-based; conditions: over the nine organisms tested
Procedure: (§1) Minimum inhibitory concentration (MIC) studies were conducted to determine the lowest level of biocide required to inhibit growth of bacteria and fungi. Tests were conducted in 96-well microtiter plates. Biocides were added to growth media in the plates and serially diluted to obtain a range of concentrations. Tests were conducted in one-half strength trypticase soy broth (TSB; adjusted to pH 7.1 or pH 9.0). Bacteria and fungi were added to samples at 10^6 colony forming units per ml and incubated at 30° C. for three days. MIC values were determined visually on a growth no-growth basis.

Pseudomonas diminuta #99 = experiment: MIC at pH 7.1 or pH 9.0, half strength TSB; type: cell-based; conditions: Brevundimonas diminuta, 72 h, three days, read-out: Minimum Inhibitory Concentration
Procedure: as §1

Aspergillus niger #128 = experiment: MIC at pH 7.1 or pH 9.0, half strength TSB; type: cell-based; conditions: Aspergillus niger, 72 h, three days, read-out: Minimum Inhibitory Concentration
Procedure: as §1

Streptomyces sp. #130 = experiment: MIC at pH 7.1 or pH 9.0, half strength TSB; type: cell-based; conditions: Streptomyces, 72 h, three days, read-out: Minimum Inhibitory Concentration
Procedure: as §1

Rhodotorula rubra = experiment: MIC, fungi, MEB pH 4.7; type: cell-based; conditions: 168 h
Procedure: (§2) Minimum inhibitory concentration (MIC) studies were conducted to determine the lowest level of biocide required to inhibit growth of bacteria and fungi. Tests were conducted in 96-well microtiter plates. Biocides were added to growth media in the plates and serially diluted to obtain a range of concentrations. Bacterial tests were conducted in trypticase soy broth (TSB; pH 7) using an overnight inoculum added at 10^6 colony forming units per ml. […] Fungal tests were conducted in malt extract broth (MEB; pH 4.7) using an 5-7 day inoculum added at 10^4 colony forming units per ml.

Fusarium sp. = experiment: MIC, fungi, MEB pH 4.7; type: cell-based; conditions: 168 h, MEB pH 4.7, 25° C., 7 days
Procedure: as §2

Geotrichum candidum = experiment: MIC, fungi, MEB pH 4.7; type: cell-based; conditions: 168 h
Procedure: as §2

Candida albicans = experiment: MIC, fungi, MEB pH 4.7; type: cell-based; conditions: 168 h
Procedure: as §2

Fusarium solani = experiment: MIC, fungi, MEB pH 4.7; type: cell-based; conditions: 168 h
Procedure: as §2

Trichosporon sp. = experiment: MIC, fungi, MEB pH 4.7; type: cell-based; conditions: 168 h
Procedure: as §2

Acremonium strictum = experiment: MIC, fungi, MEB pH 4.7; type: cell-based; conditions: Sarocladium strictum, 168 h
Procedure: as §2

Field Isolate (fungi) = experiment: MIC, fungi, MEB pH 4.7; type: cell-based; conditions: 168 h, MEB pH 4.7, 25° C., 7 days
Procedure: as §2

[1] = Stability in buffered water at various pH and temperatures (HPLC); type: physicochemical
Procedure: Biocides were added to buffer solutions and stability was tested at 22° and 50° C. using HPLC to measure biocide concentration at 0 time, 21 days, 43 days, and 88-90 days. Biocide stability was determined in the following buffer solutions: pH2, 0.01M HCl; pH6, 0.1M KH2PO4; pH8, 0.025M borate; pH10, 0.025M borate; pH12, 0.05M Na2HPO4. Biocide concentrations tested were 100 ppm MI, 200 ppm BIT, 44 ppm CMI.

Fungi = experiment: MIC, average over fungi; type: cell-based
Procedure: as §2

[2] = test system: natural, resident populations of Mycobacterium; experiment: Eradication of mycobacteria in naturally contaminated in-use metalworking fluids; type: cell-based
Procedure: A comparative study was conducted evaluating six metalworking fluid biocides versus natural, resident populations of Mycobacterium from six in-use metalworking fluids. CMIT/MIT, CMIT/MIT/MCC, MIT, BIT, triazine, and PCMC microbicides were tested under controlled laboratory conditions to determine their efficacy at the maximum manufacturer's recommended dose rate (Table 2). The metalworking fluids were known to contain high levels of mycobacteria prior to dosing with biocides. Samples were then dosed with biocides, incubated with agitation at room temperature and viable mycobacteria counts determined after 48 hours by plating onto Middlebrook 7H10 medium, with Tween 80, glycerin, cyclohexamide, chloramphenicol, and gentamycin to suppress the growth of unwanted microorganisms.
The six metalworking fluid samples containing mycobacteria study from Example 7, were also tested using the same biocides with dosing at 50% of the maximum manufacturer's recommended rate (Table 2) under the same conditions. These metalworking fluids were known to contain high levels of mycobacteria prior to dosing with biocides. Samples were then dosed with biocides, incubated with agitation at room temperature and viable mycobacteria counts determined after 48 hours by plating onto Middlebrook 7H10 medium, with Tween 80, glycerin, cyclohexamide, chloramphenicol, and gentamycin to suppress the growth of unwanted microorganisms.

**Q.** For `Cn1sccc1=O` [MI, 2-methyl-4-isothiazolin-3-one], which “change of MIC at pH 9.0 versus pH 7.1” value (bacteria and fungi) is on record?
**A.** ≤ 2 ×

**Q.** And the MIC (Pseudomonas diminuta #99; pH 7.1, 30° C.)?
**A.** 12.5 µg/mL (≈ 109 µM)

**Q.** What about the MIC (Pseudomonas diminuta #99; pH 9.0, 30° C.) of the same molecule?
**A.** 6.3 µg/mL (≈ 54.7 µM)

**Q.** And the MIC (Aspergillus niger #128; pH 7.1, 30° C.)?
**A.** 100 µg/mL (≈ 868 µM)

**Q.** And the MIC (Aspergillus niger #128; pH 9.0, 30° C.)?
**A.** 100 µg/mL (≈ 868 µM)

**Q.** And the MIC (Streptomyces sp. #130; pH 7.1, 30° C.)?
**A.** 3.2 µg/mL (≈ 27.8 µM)

**Q.** What about the MIC (Streptomyces sp. #130; pH 9.0, 30° C.) of the same molecule?
**A.** 3.2 µg/mL (≈ 27.8 µM)

**Q.** And the MIC (Rhodotorula rubra)?
**A.** 125 µg/mL (≈ 1090 µM)

**Q.** What about the MIC (Fusarium sp.) of the same molecule?
**A.** 25 µg/mL (≈ 217 µM)

**Q.** What about the MIC (Geotrichum candidum) of the same molecule?
**A.** 250 µg/mL (≈ 2170 µM)

**Q.** And the MIC (Candida albicans)?
**A.** 100 µg/mL (≈ 868 µM)

**Q.** And the MIC (Fusarium solani)?
**A.** 13 µg/mL (≈ 113 µM)

**Q.** What about the MIC (Trichosporon sp.) of the same molecule?
**A.** 63 µg/mL (≈ 547 µM)

**Q.** And the MIC (Acremonium strictum)?
**A.** 16 µg/mL (≈ 139 µM)

**Q.** And the MIC (Field Isolate (fungi); first listed)?
**A.** 8 µg/mL (≈ 69.5 µM)

**Q.** And the MIC (Field Isolate (fungi); second listed)?
**A.** 21 µg/mL (≈ 182 µM)

**Q.** And the MIC (Field Isolate (fungi); third listed)?
**A.** 6 µg/mL (≈ 52.1 µM)

**Q.** And the “Percent Remaining at: pH 2” value ([1]; 22° C., day 0)?
**A.** 100%

**Q.** What about the “Percent Remaining at: pH 6” value ([1]; 22° C., day 0) of the same molecule?
**A.** 100%

**Q.** What about the “Percent Remaining at: pH 8” value ([1]; 22° C., day 0) of the same molecule?
**A.** 100%

**Q.** What about the “Percent Remaining at: pH 10” value ([1]; 22° C., day 0) of the same molecule?
**A.** 100%

**Q.** And the “Percent Remaining at: pH 12” value ([1]; 22° C., day 0)?
**A.** 100%

**Q.** What about the “Percent Remaining at: pH 2” value ([1]; 22° C., day 21) of the same molecule?
**A.** 104%

**Q.** What about the “Percent Remaining at: pH 6” value ([1]; 22° C., day 21) of the same molecule?
**A.** 100%

**Q.** And the “Percent Remaining at: pH 8” value ([1]; 22° C., day 21)?
**A.** 100%

**Q.** What about the “Percent Remaining at: pH 10” value ([1]; 22° C., day 21) of the same molecule?
**A.** 100%

**Q.** What about the “Percent Remaining at: pH 12” value ([1]; 22° C., day 21) of the same molecule?
**A.** 98%

**Q.** And the “Percent Remaining at: pH 2” value ([1]; 22° C., day 43)?
**A.** 98%

**Q.** What about the “Percent Remaining at: pH 6” value ([1]; 22° C., day 43) of the same molecule?
**A.** 94%

**Q.** And the “Percent Remaining at: pH 8” value ([1]; 22° C., day 43)?
**A.** 95%

**Q.** And the “Percent Remaining at: pH 10” value ([1]; 22° C., day 43)?
**A.** 89%

**Q.** And the “Percent Remaining at: pH 12” value ([1]; 22° C., day 43)?
**A.** 93%

**Q.** And the “Percent Remaining at: pH 2” value ([1]; 22° C., day 88)?
**A.** 100%

**Q.** What about the “Percent Remaining at: pH 6” value ([1]; 22° C., day 88) of the same molecule?
**A.** 100%

**Q.** What about the “Percent Remaining at: pH 8” value ([1]; 22° C., day 88) of the same molecule?
**A.** 100%

**Q.** What about the “Percent Remaining at: pH 10” value ([1]; 22° C., day 88) of the same molecule?
**A.** 100%

**Q.** And the “Percent Remaining at: pH 12” value ([1]; 22° C., day 88)?
**A.** 100%

**Q.** And the “Percent Remaining at: pH 2” value ([1]; 50° C., day 0)?
**A.** 100%

**Q.** What about the “Percent Remaining at: pH 6” value ([1]; 50° C., day 0) of the same molecule?
**A.** 100%

**Q.** And the “Percent Remaining at: pH 8” value ([1]; 50° C., day 0)?
**A.** 100%

**Q.** What about the “Percent Remaining at: pH 10” value ([1]; 50° C., day 0) of the same molecule?
**A.** 100%

**Q.** And the “Percent Remaining at: pH 12” value ([1]; 50° C., day 0)?
**A.** 100%

**Q.** What about the “Percent Remaining at: pH 2” value ([1]; 50° C., day 21) of the same molecule?
**A.** 100%

**Q.** What about the “Percent Remaining at: pH 6” value ([1]; 50° C., day 21) of the same molecule?
**A.** 98%

**Q.** What about the “Percent Remaining at: pH 8” value ([1]; 50° C., day 21) of the same molecule?
**A.** 100%

**Q.** What about the “Percent Remaining at: pH 10” value ([1]; 50° C., day 21) of the same molecule?
**A.** 98%

**Q.** What about the “Percent Remaining at: pH 12” value ([1]; 50° C., day 21) of the same molecule?
**A.** 90%

**Q.** What about the “Percent Remaining at: pH 2” value ([1]; 50° C., day 43) of the same molecule?
**A.** 97%

**Q.** And the “Percent Remaining at: pH 6” value ([1]; 50° C., day 43)?
**A.** 93%

**Q.** And the “Percent Remaining at: pH 8” value ([1]; 50° C., day 43)?
**A.** 95%

**Q.** And the “Percent Remaining at: pH 10” value ([1]; 50° C., day 43)?
**A.** 93%

**Q.** What about the “Percent Remaining at: pH 12” value ([1]; 50° C., day 43) of the same molecule?
**A.** 78%

**Q.** And the “Percent Remaining at: pH 2” value ([1]; 50° C., day 90)?
**A.** 100%

**Q.** And the “Percent Remaining at: pH 6” value ([1]; 50° C., day 90)?
**A.** 100%

**Q.** And the “Percent Remaining at: pH 8” value ([1]; 50° C., day 90)?
**A.** 100%

**Q.** And the “Percent Remaining at: pH 10” value ([1]; 50° C., day 90)?
**A.** 100%

**Q.** And the “Percent Remaining at: pH 12” value ([1]; 50° C., day 90)?
**A.** 76%

**Q.** What about the “MI: CMI + MI MIC Ratio” value (Fungi; fungi, ratio of average MICs) of the same molecule?
**A.** 46.8

**Q.** What about the MIC (Fungi; read-out: MIC, Average) of the same molecule?
**A.** 63 µg/mL (≈ 547 µM)

**Q.** And the “Log Reduction in Mycobacterial Counts versus Control (no biocide)” value (“Log Reduction … (no biocide)” below) ([2]; Fluid 1, 48 hours, 50% of recommended maximum dose)?
**A.** 3.48 log

**Q.** And the “Log Reduction … (no biocide)” value ([2]; Fluid 1, 48 hours, 100% of recommended maximum dose)?
**A.** 5.88 log

**Q.** What about the “Log Reduction … (no biocide)” value ([2]; Fluid 2, 48 hours, 50% of recommended maximum dose) of the same molecule?
**A.** 3.80 log

**Q.** And the “Log Reduction … (no biocide)” value ([2]; Fluid 2, 48 hours, 100% of recommended maximum dose)?
**A.** 5.00 log

**Q.** And the “Log Reduction … (no biocide)” value ([2]; Fluid 3, 48 hours, 50% of recommended maximum dose)?
**A.** 0.00 log

**Q.** What about the “Log Reduction … (no biocide)” value ([2]; Fluid 3, 48 hours, 100% of recommended maximum dose) of the same molecule?
**A.** 2.00 log

**Q.** And the “Log Reduction … (no biocide)” value ([2]; Fluid 4, 48 hours, 50% of recommended maximum dose)?
**A.** 2.00 log

**Q.** And the “Log Reduction … (no biocide)” value ([2]; Fluid 4, 48 hours, 100% of recommended maximum dose)?
**A.** 3.64 log

**Q.** And the “Log Reduction … (no biocide)” value ([2]; Fluid 5, 48 hours, 50% of recommended maximum dose)?
**A.** 0.06 log

**Q.** What about the “Log Reduction … (no biocide)” value ([2]; Fluid 5, 48 hours, 100% of recommended maximum dose) of the same molecule?
**A.** 1.90 log

**Q.** And the “Log Reduction … (no biocide)” value ([2]; Fluid 6, 48 hours, 50% of recommended maximum dose)?
**A.** 1.78 log

**Q.** What about the “Log Reduction … (no biocide)” value ([2]; Fluid 6, 48 hours, 100% of recommended maximum dose) of the same molecule?
**A.** 3.88 log

**Q.** And the “kill (minimum degree of efficacy)” value ([2]; in all six samples of contaminated fluids, maximum recommended dose)?
**A.** > 90%
